Test results: US10766912B2 (priority 2017, dated 2020)
Where two headings read alike, the source gives them in different places.

What was measured:
[1] = system: GT1a-NS5A-L31V mutant replicon; assay: Assay Example 6: drug resistance, activity against GT1a-NS5A-L31V mutant replicon; assay type: cell-based, hepatitis C virus; details: for GT1a-NS5A-L31V Fold change: EC50 mutant versus GT1a-wt; for EC50: Hepatitis C virus, GT1A, Huh-7, 72 h, read-out: GT1a-NS5A-L31V EC50 value
Procedure: (§1) Cells: Huh-7 cells are liver cancer cell strains (from AppTec, USA), HCVGT1a wild-type replicon and GT1a-NS5A-Y93H and GT1a-NS5A-L31V mutant replicons
(§2) Treatment of Compound: According to the assay final concentrations of the compounds in Table 11, DMSO stock solutions of the compounds were diluted and then added to a 96-well assay plate. The final concentration of DMSO was 0.5%.
(§3) The preparation of cells: After replicon plasmid DNA was linearized with a corresponding restriction enzyme, the DNA was transcribed into RNA by using T7 RNA polymerase. Replicon RNA prepared by transcription in vitro was transfected into Huh-7 cells by electroporation. Transfected cells were seeded at a density of 10,000 cells per well into the 96-well assay plate containing the diluted compounds, and then placed in a 37° C. incubator with 5% CO2 and cultured for 3 days.
(§4) Compound activity assay: Luminescence signal value (RLU) was detected with Envision within 5 minutes by using the luciferase assay reagent Britelite plus, and the original data (RLU) was used for the calculation of the activity of the compounds.
(§5) The activity of the compounds was calculated by using the equation below: Inhibition %=(CPD−ZPE)/(HPE−ZPE)×100%*
(§6) The compound activity percentages (Inhibition %) were imported into GraphPad Prism software, and curves were fitted by using nonlinear regression method to obtain the corresponding curves of the compounds and the inhibitory activity (EC50) values against the HCV replicon thereof.

[2] = system: HCV GT1b/3a NS5A chimeric replicon; assay: Assay Example 2: activity against GT1b/3a NS5A chimeric replicon; assay type: cell-based; details: Hepatitis C virus, Huh-7, 72 h, read-out: EC50 Value GT1b/3a-NS5A-wt
Procedure: (§7) Cells: Huh-7 cells are liver cancer cell strains (from AppTec, USA), HCV GT1a and GT1b wild type (wt) replicons, GT1b/3a, GT1b/4a, GT1b/5a and GT1b/6a NS5A chimeric replicons.
(§8) Treatment of Compound: According to the assay final concentrations of the compounds in Table 5, DMSO stock solutions of the compounds were diluted and then added to a 96-well assay plate. The final concentration of DMSO was 0.5%.
as §3
(§9) Drug activity assay: Luminescence signal value (RLU) was detected with Envision within 15 minutes using the luciferase assay reagent Britelite plus, and the original data (RLU) was used for the calculation of the activity of the compounds.
(§10) The cytotoxicity of the compounds was calculated by using the equation below: Cell Viability %=(CPD−HPE)/(ZPE−HPE)×100%* The activity of the compounds was calculated by using the equation below: Inhibition %=(ZPE−CPD)/(ZPE−HPE)×100%*
as §6, with “cell viability percentages (Viability %) and the inhibition” for “compound activity”, “software, respectively,” for “software,”, “compounds, and the cytotoxicity (CC50) thereof” for “compounds”

[3] = system: HCV GT1a wild-type replicon; assay: Assay Example 6: drug resistance, activity against HCV GT1a wild-type replicon; assay type: cell-based; details: Hepatitis C virus, 72 h, Huh-7 cells, transient transfection, 3 days, read-out: GT1a-wt EC50 value
Procedure: as §1, §2, §3, §4, §5, §6

[4] = system: HCV GT1a wild type (wt) replicon; assay: Assay Example 2: activity against HCV GT1a wild-type replicon; assay type: cell-based; details: Hepatitis C virus, 72 h, Huh-7 cells, transient transfection, 3 days
Procedure: as §7, §8, §3, §9, §10
as §6, with “cell viability percentages (Viability %) and the inhibition” for “compound activity”, “software, respectively,” for “software,”, “compounds, and the cytotoxicity (CC50) thereof” for “compounds”

[5] = system: HCV GT1b wild type (wt) replicon; assay: Assay Example 2: activity against HCV GT1b wild-type replicon; assay type: cell-based; details: Hepatitis C virus, read-out: EC50 Value GT1b-wt
Procedure: as §7, §8, §3, §9, §10
as §6, with “cell viability percentages (Viability %) and the inhibition” for “compound activity”, “software, respectively,” for “software,”, “compounds, and the cytotoxicity (CC50) thereof” for “compounds”

[6] = Assay Example 2: cell viability assay (CellTiter-Fluor), GT1b wild-type replicon plate; assay type: cell-based; details: human, Huh-7 cells with GT1b wild-type replicon, read-out: CC50 Value GT1b-wt
Procedure: as §7, §8, §3
Cell viability assay: A cell growth fluorescent titration detection reagent CellTiter-Fluor was added to the 96-well plate of the GT1b wild-type replicon. After the cells were cultured for 1 hour in a 37° C. incubator with 5% CO2, the fluorescence signal value (RFU) was detected by Envision, and the original data (RFU) was used for the calculation of the cytotoxicity of the compounds.
as §10
as §6, with “cell viability percentages (Viability %) and the inhibition” for “compound activity”, “software, respectively,” for “software,”, “compounds, and the cytotoxicity (CC50) thereof” for “compounds”

[7] = system: GT1a-NS5A-Y93H mutant replicon; assay: Assay Example 6: drug resistance, activity against GT1a-NS5A-Y93H mutant replicon; assay type: cell-based, hepatitis C virus; details: for GT1a-NS5A-Y93H Fold change: EC50 mutant versus GT1a-wt; for EC50: Hepatitis C virus, GT1A, Huh-7, 72 h, read-out: GT1a-NS5A-Y93H EC50 value
Procedure: as §1, §2, §3, §4, §5, §6

[8] = system: HCV GT1b/5a NS5A chimeric replicon; assay: Assay Example 2: activity against GT1b/5a NS5A chimeric replicon; assay type: cell-based; details: Hepatitis C virus, Huh-7, 72 h, read-out: EC50 Value GT1b/5a-NS5A-wt
Procedure: as §7, §8, §3, §9, §10
as §6, with “cell viability percentages (Viability %) and the inhibition” for “compound activity”, “software, respectively,” for “software,”, “compounds, and the cytotoxicity (CC50) thereof” for “compounds”

[9] = system: HCV GT1b/4a NS5A chimeric replicon; assay: Assay Example 2: activity against GT1b/4a NS5A chimeric replicon; assay type: cell-based; details: Hepatitis C virus, Huh-7, 72 h, read-out: EC50 Value GT1b/4a-NS5A-wt
Procedure: as §7, §8, §3, §9, §10
as §6, with “cell viability percentages (Viability %) and the inhibition” for “compound activity”, “software, respectively,” for “software,”, “compounds, and the cytotoxicity (CC50) thereof” for “compounds”

[10] = system: HCV GT1b/6a NS5A chimeric replicon; assay: Assay Example 2: activity against GT1b/6a NS5A chimeric replicon; assay type: cell-based; details: Hepatitis C virus, Huh-7, 72 h, read-out: EC50 Value GT1b/6a-NS5A-wt
Procedure: as §7, §8, §3, §9, §10
as §6, with “cell viability percentages (Viability %) and the inhibition” for “compound activity”, “software, respectively,” for “software,”, “compounds, and the cytotoxicity (CC50) thereof” for “compounds”

[11] = Assay Example 3: parallel cytotoxicity assay (alamarBlue) without viral infection; assay type: cell-based; details: human, Huh7.5.1 cells without viral infection, no viral infection, read-out: CC50 Value HCVcc
Procedure: (§11) Cells: Huh7.5.1 cells and hepatitis C virus HCVcc (GT2a, JFH-1) infection system.
(§12) Treatment of Compound: According to the assay final concentrations of the compounds in Table 6, DMSO stock solutions of the compounds were diluted and then added to a 96-well assay plate. The final concentration of DMSO was 0.5%.
(§13) Viral infection: Huh7.5.1 cells were seeded in a 96-well cell culture plate, and the cells were cultured overnight at 37° C. in an incubator with 5% CO2 for later use. The compound and the HCVcc virus solution (MOI=0.1) were simultaneously added to the cells, and the virus infection was cultured for 3 days. Parallel cytotoxicity assay was identical to the method for the inhibition of the virus but without viral infection.
Cell viability assay: Cell viability was detected by the addition of alamarBlue assay reagent. The original data (RFU) was used for the calculation of the cytotoxicity of the compounds.
The cytotoxicity of the compounds was calculated by using the equation below: Cell Viability %=CPD/CC×100%*
(§14) The cell viability percentages (Cell Viability %) and the compound activity percentages (Inhibition %) were imported into GraphPad Prism software, respectively, and curves were fitted by using nonlinear regression method to obtain the corresponding curves of the compounds, and the cytotoxicity (CC50) thereof and inhibitory activity (EC50) values against the HCV replicon thereof.

[12] = system: hepatitis C virus HCVcc (GT2a, JFH-1); assay: Assay Example 3: activity against infective hepatitis C virus HCVcc (GT2a, JFH-1); assay type: cell-based; details: Huh-7.5.1, 72 h, read-out: EC50 Value GT2a HCVcc
Procedure: as §11, §12, §13
Drug activity assay: The activity of hRLuc was detected by the addition of Renilla luciferase assay reagent. The original data (RLU) was used for the calculation of the activity of the compounds.
The activity of the compounds was calculated by using the equation below: Inhibition %=(CPD−VC)/(CC−VC)×100%*
as §14

[13] = 72 h, Huh-7 cells, transient transfection, 3 days
[14] = Huh-7 cells transfected with HCV GT1b wild-type replicon RNA

SMILES | GT1a-NS5A-L31V Fold change [1] | EC50 [1] [pM] | EC50 [2] [pM] | EC50 [3] [pM] | EC50 [4] [pM] | EC50 [5, 13] [pM] | CC50 at 3 days [6, 14] [pM] | GT1a-NS5A-Y93H Fold change [7] | EC50 [7] [pM] | EC50 [8] [pM] | EC50 [9] [pM] | EC50 [10] [pM] | CC50 at 3 days [11] [pM] | EC50 ([5]; Huh-7, 72 h) [pM] | CC50 at 3 days [6] [pM] | EC50 [12] [pM]
COC(=O)N[C@H](C(=O)N1CCC[C@H]1c1nc2cc([C@H]3CC[C@H](c4ccc5[nH]c([C@@H]6CCCN6C(=O)[C@@H](NC(=O)OC)[C@@H](C)OC)nc5c4)N3c3cc(F)c(N4CC[Si]5(CCCC5)CC4)c(F)c3)ccc2[nH]1)[C@@H](C)OC [Compound 7b] | 3.4 | 6.1 | 10.3 | 1.8 | 1.44 | 3.3 | > 200 | 502 | 903 | – | – | – | – | – | – | –
COC(=O)N[C@H](C(=O)N1CCC[C@H]1c1nc2cc([C@H]3CC[C@H](c4cc5nc([C@@H]6CCCN6C(=O)[C@@H](NC(=O)OC)[C@@H](C)OC)[nH]c5cc4F)N3c3cc(F)c(N4CC[Si](C)(C)CC4)c(F)c3)c(F)cc2[nH]1)[C@@H](C)OC [Compound 9b] | 0.9 | 1.7 | 3.8 | 2 | 1.01 | 5.28 | > 200 | 20.0 | 40 | 6.08 | 2.49 | 1.13 | > 100 | – | – | –
COC(=O)N[C@H](C(=O)N1CCC[C@H]1C(=O)Nc1ccc([C@@H]2CC[C@@H](c3ccc(NC(=O)[C@@H]4CCCN4C(=O)[C@@H](NC(=O)OC)[C@@H](C)OC)cc3)N2c2cc(F)c(N3CC[Si]4(CCCCC4)CC3)c(F)c2)cc1)[C@@H](C)OC [Compound 11a] | – | – | 8.8 | – | – | – | – | – | – | – | – | 1.69 | – | 1.34 | > 200 | –
COC(=O)N[C@H](C(=O)N1CCC[C@H]1C(=O)Nc1ccc([C@H]2CC[C@H](c3cc4[nH]c([C@@H]5CCCN5C(=O)[C@@H](NC(=O)OC)[C@@H](C)OC)nc4cc3F)N2c2cc(F)c(N3CC[Si](C)(C)CC3)c(F)c2)cc1)[C@@H](C)OC [Compound 14b] | 11.0 | 32 | 6.11 | 2.9 | 1.07 | 2.92 | > 200 | – | – | 5.37 | 1.59 | 1.12 | > 100 | – | – | –
COC[C@H]1C[C@@H](C(=O)Nc2ccc([C@H]3CC[C@H](c4cc5[nH]c([C@@H]6CCCN6C(=O)[C@@H](NC(=O)OC)[C@@H](C)OC)nc5cc4F)N3c3cc(F)c(N4CC[Si](C)(C)CC4)c(F)c3)cc2)N(C(=O)[C@@H](NC(=O)OC)[C@@H](C)OC)C1 [Compound 17b] | – | – | 5.71 | – | – | 3.06 | > 200 | – | – | 4.66 | 1.66 | 1.09 | > 100 | – | – | 2.68
COC[C@H]1C[C@@H](C(=O)Nc2ccc([C@H]3CC[C@H](c4ccc5nc([C@@H]6CCCN6C(=O)[C@@H](NC(=O)OC)[C@@H](C)OC)[nH]c5c4)N3c3cc(F)c(N4CC[Si](C)(C)CC4)c(F)c3)cc2)N(C(=O)[C@@H](NC(=O)OC)[C@@H](C)OC)C1 [Compound 18b] | – | – | 7.14 | – | – | 2.59 | > 200 | – | – | 4.5 | – | 1.75 | > 100 | – | – | 1.15
